In this assay the target is T1, human α-synuclein (Homo sapiens, UniProt P37840).
T1 construct: the full-length gene for untagged human α-synuclein was inserted; made in house; host or cells: E. coli BL21(DE3), plasmid derived from pT7 or pET11a
As to the kind of experiment: Cell-free Thioflavin T assay of α-synuclein aggregation (αSyn ThT Assay). The settings on record: αSyn 50 μM, compounds 100 μM. It is filed as biochemical. A digest of the protocol:
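Inhibition is reported as 100% minus background-corrected ThT signal relative to vehicle wells, taken at 36, 47, 48 or 72 h or the last read. Reactions held 50 μM recombinant α-synuclein, 20-100 μM compound, 20-40 μM ThT and 1% DMSO. Incubation was at 37° C., shaken, with a glass bead.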

Setting [1] is: class symbol, read-out: αSyn ThT Assay % inhibition, activity range.
[2] abbreviates: mean percent inhibition relative to DMSO control, read-out: αSyn ThT Assay % inhibition.

Like-named read-outs stand apart in the source and are kept apart here.

As a reminder, the inhibition is the relative decrease from the control value, in per cent. Regarding `O=C(O)C1CN(CCc2ccccc2)c2c(-c3cccc(C(F)(F)F)c3)c(Cc3cccc4ccccc34)c(Cl)c(=O)n21` (centres unmarked) [Compound 178, 6-chloro-7-(naphthalen-1-ylmethyl)-5-oxo-1-phenethyl-8-(3-(trifluoromethyl)phenyl)-1,2,3,5-tetrahydroimidazo[1,2-a]pyridine-3-carboxylic acid], the inhibition at 100 µM by setting is: under setting [1], 31 to 60%; under setting [2], 43%.

Turning to `CC(C)N1CC(C(=O)O)n2c1c(-c1cccc(C(F)(F)F)c1)c(Cc1cccc3ccccc13)c(Cl)c2=O` (centres unmarked) [Compound 179, 6-chloro-1-isopropyl-7-(naphthalen-1-ylmethyl)-5-oxo-8-(3-(trifluoromethyl)phenyl)-1,2,3,5-tetrahydroimidazo[1,2-a]pyridine-3-carboxylic acid], the inhibition at 100 µM is greater than 60% under setting [1] and 72% under setting [2].

On to `O=C(O)C1CN(CC2CCCCC2)c2c(-c3cccc(C(F)(F)F)c3)c(Cc3cccc4ccccc34)c(Cl)c(=O)n21` (centres unmarked) [Compound 180, 6-chloro-1-(cyclohexylmethyl)-7-(naphthalen-1-ylmethyl)-5-oxo-8-(3-(trifluoromethyl)phenyl)-1,2,3,5-tetrahydroimidazo[1,2-a]pyridine-3-carboxylic acid], for which the inhibition at 100 µM was greater than 60% under setting [1] and 63% under setting [2].

For `O=C(O)C1CN(Cc2ccccc2CO)c2c(-c3cccc(C(F)(F)F)c3)c(Cc3cccc4ccccc34)c(Cl)c(=O)n21` (centres unmarked) [Compound 181, 6-chloro-1-(2-(hydroxymethyl)benzyl)-7-(naphthalen-1-ylmethyl)-5-oxo-8-(3-(trifluoromethyl)phenyl)-1,2,3,5-tetrahydroimidazo[1,2-a]pyridine-3-carboxylic acid], the inhibition at 100 µM was 31 to 60% under setting [1] and 31% under setting [2].

Consider `O=C(O)C1CN(CC2CCOCC2)c2c(-c3cccc(C(F)(F)F)c3)c(Cc3cccc4ccccc34)c(Cl)c(=O)n21` (centres unmarked) [Compound 182, 6-chloro-7-(naphthalen-1-ylmethyl)-5-oxo-1-((tetrahydro-2H-pyran-4-yl)methyl)-8-(3-(trifluoromethyl)phenyl)-1,2,3,5-tetrahydroimidazo[1,2-a]pyridine-3-carboxylic acid], for which the inhibition at 100 µM runs as follows: under setting [1], 31 to 60%; under setting [2], 33%.

For `NC(=O)c1c(Cc2cccc3ccccc23)c(-c2cccc(C(F)(F)F)c2)c2n(c1=O)C(C(=O)O)CN(CCCO)S2(=O)=O` (centres unmarked) [Compound 184, 7-carbamoyl-2-(3-hydroxypropyl)-8-(naphthalen-1-ylmethyl)-6-oxo-9-(3-(trifluoromethyl)phenyl)-3,4-dihydro-2H,6H-pyrido[1,2-e][1,2,5]thiadiazine-4-carboxylic acid 1,1-dioxide], the inhibition at 100 µM was greater than 60% under setting [1] and 75% under setting [2].

For the compound `O=C(O)C1CN(Cc2ccccc2)c2c(-c3cccc(C(F)(F)F)c3)c(Cc3cccc4ccccc34)cc(=O)n21` (centres unmarked) [Compound 187, 1-benzyl-7-(naphthalen-1-ylmethyl)-5-oxo-8-(3-(trifluoromethyl)phenyl)-1,2,3,5-tetrahydroimidazo[1,2-a]pyridine-3-carboxylic acid], the inhibition at 100 µM reads like this: under setting [1], 31 to 60%; under setting [2], 45%.

In the case of `O=C(O)C1CN(CCCCCCCN2CC(C(=O)O)n3c2c(-c2cccc(C(F)(F)F)c2)c(Cc2cccc4ccccc24)c(Cl)c3=O)c2c(-c3cccc(C(F)(F)F)c3)c(Cc3cccc4ccccc34)c(Cl)c(=O)n21` (centres unmarked) [Compound 188, 1,1′-(heptane-1,7-diyl)bis(6-chloro-7-(naphthalen-1-ylmethyl)-5-oxo-8-(3-(trifluoromethyl)phenyl)-1,2,3,5-tetrahydroimidazo[1,2-a]pyridine-3-carboxylic acid)], the inhibition at 100 µM reads like this: under setting [1], greater than 60%; under setting [2], 62%.

Turning to `COc1ccc(CN2CC(C(=O)O)n3c2c(-c2cccc(C(F)(F)F)c2)c(Cc2cccc4ccccc24)c(Cl)c3=O)cc1` (centres unmarked) [Compound 192, 6-chloro-1-(4-methoxybenzyl)-7-(naphthalen-1-ylmethyl)-5-oxo-8-(3-(trifluoromethyl)phenyl)-1,2,3,5-tetrahydroimidazo[1,2-a]pyridine-3-carboxylic acid], the inhibition at 100 µM is, setting by setting: under setting [1], 31 to 60%; under setting [2], 59%.

On to `O=C(O)C1CN(CCCCCCN2CC(C(=O)O)n3c2c(-c2cccc(C(F)(F)F)c2)c(Cc2cccc4ccccc24)c(Cl)c3=O)c2c(-c3cccc(C(F)(F)F)c3)c(Cc3cccc4ccccc34)c(Cl)c(=O)n21` (centres unmarked) [Compound 193, 1,1′-(hexane-1,6-diyl)bis(6-chloro-7-(naphthalen-1-ylmethyl)-5-oxo-8-(3-(trifluoromethyl)phenyl)-1,2,3,5-tetrahydroimidazo[1,2-a]pyridine-3-carboxylic acid)], for which the inhibition at 100 µM is greater than 60% under setting [1] and 69% under setting [2].

Consider `O=C(O)C1CN(Cc2ccccc2)c2c(-c3cccc(C(F)(F)F)c3)c(Cc3cccc4ccccc34)c(F)c(=O)n21` (centres unmarked) [Compound 194, 1-benzyl-6-fluoro-7-(naphthalen-1-ylmethyl)-5-oxo-8-(3-(trifluoromethyl)phenyl)-1,2,3,5-tetrahydroimidazo[1,2-a]pyridine-3-carboxylic acid], for which the inhibition at 100 µM is 31 to 60% under setting [1] and 57% under setting [2].

Take `O=C(O)C1CN(Cc2cccc(O)c2)c2c(-c3cccc(C(F)(F)F)c3)c(Cc3cccc4ccccc34)c(Cl)c(=O)n21` (centres unmarked) [Compound 196, 6-chloro-1-(3-hydroxybenzyl)-7-(naphthalen-1-ylmethyl)-5-oxo-8-(3-(trifluoromethyl)phenyl)-1,2,3,5-tetrahydroimidazo[1,2-a]pyridine-3-carboxylic acid]: the inhibition at 100 µM is, setting by setting: under setting [1], greater than 60%; under setting [2], 61%.

Turning to `O=C(O)C1CN(CCCO)c2c(-c3cccc(C(F)(F)F)c3)c(Cc3cccc4ccccc34)c(Cl)c(=O)n21` (centres unmarked) [Compound 197, 6-chloro-1-(3-hydroxypropyl)-7-(naphthalen-1-ylmethyl)-5-oxo-8-(3-(trifluoromethyl)phenyl)-1,2,3,5-tetrahydroimidazo[1,2-a]pyridine-3-carboxylic acid], the inhibition at 100 µM was 31 to 60% under setting [1] and 39% under setting [2].

With `O=C(O)C1CN(Cc2ccccc2)c2c(-c3cccc(Br)c3)c(Cc3cccc4ccccc34)c(Cl)c(=O)n21` (centres unmarked) [Compound 198, 1-benzyl-8-(3-bromophenyl)-6-chloro-7-(naphthalen-1-ylmethyl)-5-oxo-1,2,3,5-tetrahydroimidazo[1,2-a]pyridine-3-carboxylic acid], the inhibition at 100 µM is, setting by setting: under setting [1], greater than 60%; under setting [2], 75%.

`O=C(O)C1CN(CCCCCO)c2c(-c3cccc(C(F)(F)F)c3)c(Cc3cccc4ccccc34)c(Cl)c(=O)n21` (centres unmarked) [Compound 199, 6-chloro-1-(5-hydroxypentyl)-7-(naphthalen-1-ylmethyl)-5-oxo-8-(3-(trifluoromethyl)phenyl)-1,2,3,5-tetrahydroimidazo[1,2-a]pyridine-3-carboxylic acid]: the inhibition at 100 µM is 11 to 30% under setting [1] and 29% under setting [2].

Consider `O=C(O)C1CN(Cc2cccc3ccccc23)c2c(-c3cccc(C(F)(F)F)c3)c(Cc3cccc4ccccc34)c(Cl)c(=O)n21` (centres unmarked) [Compound 200, 6-chloro-1,7-bis(naphthalen-1-ylmethyl)-5-oxo-8-(3-(trifluoromethyl)phenyl)-1,2,3,5-tetrahydroimidazo[1,2-a]pyridine-3-carboxylic acid], for which the inhibition at 100 µM by setting is: under setting [1], greater than 60%; under setting [2], 84%.

As to `O=C(O)C1CN(Cc2ccc(-c3ccccc3)cc2)c2c(-c3cccc(C(F)(F)F)c3)c(Cc3cccc4ccccc34)c(Cl)c(=O)n21` (centres unmarked) [Compound 202, 1-([1,1′-biphenyl]-4-ylmethyl)-6-chloro-7-(naphthalen-1-ylmethyl)-5-oxo-8-(3-(trifluoromethyl)phenyl)-1,2,3,5-tetrahydroimidazo[1,2-a]pyridine-3-carboxylic acid], the inhibition at 100 µM runs as follows: under setting [1], 31 to 60%; under setting [2], 54%.

For `O=C(O)C1CN(CCC2CCCCC2)c2c(-c3cccc(C(F)(F)F)c3)c(Cc3cccc4ccccc34)c(Cl)c(=O)n21` (centres unmarked) [Compound 207, 6-chloro-1-(2-cyclohexylethyl)-7-(naphthalen-1-ylmethyl)-5-oxo-8-(3-(trifluoromethyl)phenyl)-1,2,3,5-tetrahydroimidazo[1,2-a]pyridine-3-carboxylic acid], the inhibition at 100 µM was greater than 60% under setting [1] and 71% under setting [2].

As to `CC(C)(C)c1ccc(Cc2c(-c3cccc(C(F)(F)F)c3)c3n(c(=O)c2Cl)C(C(=O)O)CN3Cc2ccccc2)cc1` (centres unmarked) [Compound 216, 1-benzyl-7-(4-(tert-butyl)benzyl)-6-chloro-5-oxo-8-(3-(trifluoromethyl)phenyl)-1,2,3,5-tetrahydroimidazo[1,2-a]pyridine-3-carboxylic acid], the inhibition at 100 µM under setting [1] lay within 31 to 60% and the inhibition at 100 µM under setting [2] worked out at 46%.
